According to ChEMBL document CHEMBL3608244, “Left-Hand Side Exploration of Novel Bacterial Topoisomerase Inhibitors to Improve Selectivity against hERG Binding” (ACS Med Chem Lett, 2015):
In brackets after ≈: the same amount, converted by molar mass.

Tests used:
[1] = tested on: Mycobacterium tuberculosis; experiment: Antimycobacterial activity against Mycobacterium tuberculosis H37Rv ATCC 27294 incubated for 7 days by microdilution method; format: functional; settings: H37Rv ATCC 27294, 168 h
[2] = biological target: Voltage-gated inwardly rectifying potassium channel KCNH2 (Homo sapiens, UniProt Q12809)
Chain of Voltage-gated inwardly rectifying potassium channel KCNH2 (Q12809 whole entry): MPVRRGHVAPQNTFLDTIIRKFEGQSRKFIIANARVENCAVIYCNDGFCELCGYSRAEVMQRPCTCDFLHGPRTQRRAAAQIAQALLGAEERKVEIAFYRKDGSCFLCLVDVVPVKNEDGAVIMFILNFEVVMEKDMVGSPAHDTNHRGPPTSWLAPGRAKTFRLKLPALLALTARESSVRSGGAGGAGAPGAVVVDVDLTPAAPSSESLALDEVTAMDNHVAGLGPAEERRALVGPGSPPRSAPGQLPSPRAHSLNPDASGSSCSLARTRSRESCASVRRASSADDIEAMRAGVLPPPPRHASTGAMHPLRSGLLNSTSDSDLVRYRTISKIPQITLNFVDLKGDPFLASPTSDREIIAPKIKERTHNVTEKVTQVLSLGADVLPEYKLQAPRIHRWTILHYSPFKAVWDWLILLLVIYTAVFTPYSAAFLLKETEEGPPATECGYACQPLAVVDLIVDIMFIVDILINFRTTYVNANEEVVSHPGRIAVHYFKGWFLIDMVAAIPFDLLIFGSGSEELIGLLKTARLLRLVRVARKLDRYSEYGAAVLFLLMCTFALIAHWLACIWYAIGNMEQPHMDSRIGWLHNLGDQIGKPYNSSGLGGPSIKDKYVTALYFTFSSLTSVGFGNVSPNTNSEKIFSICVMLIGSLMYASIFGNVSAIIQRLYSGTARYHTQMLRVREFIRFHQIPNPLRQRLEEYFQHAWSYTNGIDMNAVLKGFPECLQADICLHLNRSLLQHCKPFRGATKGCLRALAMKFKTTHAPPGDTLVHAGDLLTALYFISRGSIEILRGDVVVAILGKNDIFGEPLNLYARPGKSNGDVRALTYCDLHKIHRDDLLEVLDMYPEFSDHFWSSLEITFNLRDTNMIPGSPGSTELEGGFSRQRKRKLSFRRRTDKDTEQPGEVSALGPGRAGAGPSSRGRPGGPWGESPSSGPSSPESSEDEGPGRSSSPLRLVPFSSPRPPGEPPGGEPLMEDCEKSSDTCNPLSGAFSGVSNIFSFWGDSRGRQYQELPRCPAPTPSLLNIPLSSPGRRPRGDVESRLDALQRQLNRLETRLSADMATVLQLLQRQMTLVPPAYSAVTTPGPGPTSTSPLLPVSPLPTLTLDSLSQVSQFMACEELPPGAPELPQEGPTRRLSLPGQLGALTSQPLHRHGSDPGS
Description: Inhibition of human ERG by IonWorks assay

[3] = biological target: DNA gyrase subunit A/DNA gyrase subunit B (Mycobacterium tuberculosis (strain ATCC 25618 / H37Rv), UniProt P9WG45+P9WG47); experiment: Inhibition of Mycobacterium tuberculosis H37Rv DNA gyrase assessed as supercoiling of pBR322 DNA after 90 mins by agarose gel electrophoresis method
Chain of DNA gyrase subunit A/DNA gyrase subunit B (P9WG45 whole entry): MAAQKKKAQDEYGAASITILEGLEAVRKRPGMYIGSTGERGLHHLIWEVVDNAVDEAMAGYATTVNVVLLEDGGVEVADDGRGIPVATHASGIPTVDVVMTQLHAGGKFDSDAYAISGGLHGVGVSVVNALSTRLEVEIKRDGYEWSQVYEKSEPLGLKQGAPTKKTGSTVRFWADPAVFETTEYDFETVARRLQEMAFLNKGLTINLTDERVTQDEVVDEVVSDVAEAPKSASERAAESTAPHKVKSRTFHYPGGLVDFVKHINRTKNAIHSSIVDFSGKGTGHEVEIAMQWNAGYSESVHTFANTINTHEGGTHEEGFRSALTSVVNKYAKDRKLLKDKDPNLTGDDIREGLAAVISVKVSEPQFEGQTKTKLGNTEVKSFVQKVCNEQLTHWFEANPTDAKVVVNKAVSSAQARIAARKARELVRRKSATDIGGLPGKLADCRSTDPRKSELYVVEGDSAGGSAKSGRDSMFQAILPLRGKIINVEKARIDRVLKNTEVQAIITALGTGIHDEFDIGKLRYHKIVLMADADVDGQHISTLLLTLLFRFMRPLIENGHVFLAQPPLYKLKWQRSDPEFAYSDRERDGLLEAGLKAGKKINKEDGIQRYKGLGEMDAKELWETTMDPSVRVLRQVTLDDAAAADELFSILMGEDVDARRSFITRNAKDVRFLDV
Chain of DNA gyrase subunit A/DNA gyrase subunit B (P9WG47 whole entry): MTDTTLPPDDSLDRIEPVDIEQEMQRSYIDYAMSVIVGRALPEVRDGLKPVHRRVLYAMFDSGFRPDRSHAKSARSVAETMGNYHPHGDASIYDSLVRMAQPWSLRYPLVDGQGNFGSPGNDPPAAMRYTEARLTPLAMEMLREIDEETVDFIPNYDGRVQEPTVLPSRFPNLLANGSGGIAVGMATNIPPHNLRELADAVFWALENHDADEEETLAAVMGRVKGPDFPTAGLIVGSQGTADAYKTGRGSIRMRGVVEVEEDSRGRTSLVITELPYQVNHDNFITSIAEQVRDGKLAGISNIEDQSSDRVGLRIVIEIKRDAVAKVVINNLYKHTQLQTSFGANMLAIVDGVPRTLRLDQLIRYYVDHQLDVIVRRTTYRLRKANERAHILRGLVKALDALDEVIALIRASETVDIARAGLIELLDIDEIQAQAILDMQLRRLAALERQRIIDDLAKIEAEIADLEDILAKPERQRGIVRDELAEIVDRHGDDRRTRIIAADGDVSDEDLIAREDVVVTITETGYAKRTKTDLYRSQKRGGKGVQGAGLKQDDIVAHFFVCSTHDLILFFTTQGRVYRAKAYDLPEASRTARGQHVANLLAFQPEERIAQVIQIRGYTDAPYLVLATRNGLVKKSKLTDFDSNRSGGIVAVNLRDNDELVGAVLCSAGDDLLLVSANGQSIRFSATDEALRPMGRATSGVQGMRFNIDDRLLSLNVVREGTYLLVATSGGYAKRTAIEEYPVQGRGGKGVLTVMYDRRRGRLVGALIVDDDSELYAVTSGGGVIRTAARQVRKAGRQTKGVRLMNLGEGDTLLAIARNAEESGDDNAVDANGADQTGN

[4] = Solubility of the compound; format: physicochemical
Caco-2 = experiment: Permeability across human Caco2 cells; format: ADME, cell-based
[5] = tested on: Mycobacterium tuberculosis; experiment: Antimycobacterial activity against Mycobacterium tuberculosis infected in human THP1 cells assessed as bacteria killing effect at 1 to 16 ug/ml; format: functional, THP-1
[6] = tested on: Mycobacterium tuberculosis; experiment: Antimycobacterial activity against Mycobacterium tuberculosis in acute mouse model of tuberculosis assessed as bacteria killing effect at 100 mg/kg, po bid administered for 10 days relative to early control; format: functional
[7] = tested on: Mycobacterium tuberculosis; experiment: Antimycobacterial activity against Mycobacterium tuberculosis infected in human THP1 cells assessed as bacteria killing effect; format: functional, organism-based; settings: THP-1

SMILES | MIC [1] | also measured
O=C1COc2ccc(CNC3CCN(CCn4c(=O)ccc5ncc(O[C@@H]6CCOC6)cc54)CC3)nc2N1 | 0.25 µM (≈ 0.13 µg/mL) | –
Cc1ncc(CNC2CCN(CCn3c(=O)ccc4ncc(Oc5ccc(S(N)(=O)=O)cc5)cc43)CC2)cc1Cl | 0.06 µM (≈ 0.035 µg/mL) | IC50 [2]: 82 µM
O=C1COc2ccc(CNC3CCN(CCn4c(=O)ccc5ccc(Cl)nc54)CC3)nc2N1 | 0.19 µM (≈ 0.0891 µg/mL) | IC50 [3]: 110 nM
O=C1COc2ccc(CNC3CCN(CCn4c(=O)ccc5ncc(Oc6cccnc6)cc54)CC3)nc2N1 | 0.06 µM (≈ 0.0317 µg/mL) | solubility [4]: 665 µM (≈ 351 µg/mL); permeability (Caco-2): permeable
Cn1ccc(COc2cnc3ccc(=O)n(CCN4CCC(NCc5ccc6c(n5)NC(=O)CO6)CC4)c3c2)n1 | 0.25 µM (≈ 0.136 µg/mL) | –
COc1cnc2ccc(=O)n(CCN3CCC(c4nc5cc(Cl)ccc5[nH]4)CC3)c2c1 | 0.25 µM (≈ 0.109 µg/mL) | –
O=C1COc2ccc(CNC3CCN(CCn4c(=O)ccc5ccc(Oc6cncnc6)nc54)CC3)nc2N1 | 0.25 µM (≈ 0.132 µg/mL) | IC50 [3]: 173 nM; IC50 [2]: > 224 µM
O=C1COc2ccc(CNC3CCN(CCn4c(=O)ccc5ncc(OCc6cccnn6)cc54)CC3)nc2N1 | 1 µM (≈ 0.543 µg/mL) | –
O=C1COc2ccc(CNC3CCN(CCn4c(=O)ccc5ccc(Oc6ccon6)nc54)CC3)nc2N1 | 0.25 µM (≈ 0.129 µg/mL) | –
COc1ccc2ccc(=O)n(CCN3CCC(NCc4ccc5c(n4)NC(=O)CO5)CC3)c2n1 | 0.25 µM (≈ 0.116 µg/mL) | IC50 [2]: 23 µM
O=C1COc2ccc(CN[C@@H]3CCN(CCn4c(=O)ccc5ncc(Oc6ccon6)cc54)C[C@@H]3F)nc2N1 | 0.25 µM (≈ 0.134 µg/mL) | solubility [4]: 665 µM (≈ 356 µg/mL); permeability (Caco-2): permeable
O=C1COc2ccc(CNC3CCN(CCn4c(=O)ccc5ncc(Oc6cncc(F)c6)cc54)CC3)nc2N1 | 0.25 µM (≈ 0.136 µg/mL) | –
O=C1COc2ccc(CNC3CCN(CCn4c(=O)ccc5ncc(O[C@H]6CCOC6)cc54)CC3)nc2N1 | 0.5 µM (≈ 0.26 µg/mL) | –
Cc1cc2[nH]c(C3CCN(CCn4c(=O)ccc5ncc(Oc6ccc(S(N)(=O)=O)cc6)cc54)CC3)nc2cc1C#N | 0.25 µM (≈ 0.146 µg/mL) | IC50 [2]: > 33 µM
O=C1COc2ccc(CNC3CCN(CCn4c(=O)ccc5ncc(OCc6ccccn6)cc54)CC3)nc2N1 | 0.5 µM (≈ 0.271 µg/mL) | –
O=C1COc2ccc(CN[C@@H]3CCN(CCn4c(=O)ccc5ncc(Oc6cccnc6)cc54)C[C@@H]3F)nc2N1 | 0.25 µM (≈ 0.136 µg/mL) | IC50 [3]: 800 nM; solubility [4]: 665 µM (≈ 363 µg/mL); permeability (Caco-2): permeable; LCK [5]: 1; LCK [6]: >1; Activity [7]: Dose-dependent effect
COc1c(N2C[C@@H]3CCCN[C@@H]3C2)c(F)cc2c(=O)c(C(=O)O)cn(C3CC3)c12 [MOXIFLOXACIN] | 0.13 µM (≈ 0.0522 µg/mL) | –
O=C(O)c1cn(C2CC2)c2cc(N3CCNCC3)c(F)cc2c1=O [CIPROFLOXACIN] | 0.5 µM (≈ 0.166 µg/mL) | –
NNC(=O)c1ccncc1 [ISONIAZID] | 0.06 µM (≈ 0.00823 µg/mL) | –
O=C1COc2ccc(CNC3CCN(CCn4c(=O)ccc5ncc(Oc6ccon6)cc54)CC3)nc2N1 | 0.25 µM (≈ 0.129 µg/mL) | solubility [4]: 665 µM (≈ 344 µg/mL); permeability (Caco-2): permeable
NS(=O)(=O)c1ccc(Oc2ccc3ccc(=O)n(CCN4CCC(NCc5ccc6c(n5)NC(=O)CO6)CC4)c3n2)cc1 | 0.03 µM (≈ 0.0182 µg/mL) | permeability (Caco-2): impermeable; IC50 [2]: > 100 µM
Cc1ncc(CNC2CCN(CCn3c(=O)ccc4ncc(F)cc43)CC2)cc1Cl | 0.19 µM (≈ 0.0817 µg/mL) | IC50 [3]: 250 nM
NS(=O)(=O)c1ccc(Oc2cnc3ccc(=O)n(CCN4CCC(c5nc6cc(Cl)ccc6[nH]5)CC4)c3c2)cc1 | 0.19 µM (≈ 0.11 µg/mL) | permeability (Caco-2): impermeable
Cc1ncc(CNC2CCN(CCn3c(=O)ccc4ncc(Oc5ccc(S(N)(=O)=O)cc5)cc43)CC2)cc1C#N | 0.06 µM (≈ 0.0344 µg/mL) | IC50 [2]: > 100 µM
O=C1COc2ccc(CNC3CCN(CCn4c(=O)ccc5ccc(Oc6cccnc6)nc54)CC3)nc2N1 | 0.06 µM (≈ 0.0317 µg/mL) | IC50 [3]: 104 nM
